# In paper PMC8487611 (ACS chemical neuroscience, 2021):
# Molecular target: α3β4 nicotinic acetylcholine receptor (mouse) (Mus musculus, UniProt Q8R493+Q8R4G9)
# Assay: two-electrode voltage clamp of Xenopus oocytes, block of ACh
# Assay type: cell-based
# α3β4 nicotinic acetylcholine receptor (mouse), sequence (Q8R4G9 26-499): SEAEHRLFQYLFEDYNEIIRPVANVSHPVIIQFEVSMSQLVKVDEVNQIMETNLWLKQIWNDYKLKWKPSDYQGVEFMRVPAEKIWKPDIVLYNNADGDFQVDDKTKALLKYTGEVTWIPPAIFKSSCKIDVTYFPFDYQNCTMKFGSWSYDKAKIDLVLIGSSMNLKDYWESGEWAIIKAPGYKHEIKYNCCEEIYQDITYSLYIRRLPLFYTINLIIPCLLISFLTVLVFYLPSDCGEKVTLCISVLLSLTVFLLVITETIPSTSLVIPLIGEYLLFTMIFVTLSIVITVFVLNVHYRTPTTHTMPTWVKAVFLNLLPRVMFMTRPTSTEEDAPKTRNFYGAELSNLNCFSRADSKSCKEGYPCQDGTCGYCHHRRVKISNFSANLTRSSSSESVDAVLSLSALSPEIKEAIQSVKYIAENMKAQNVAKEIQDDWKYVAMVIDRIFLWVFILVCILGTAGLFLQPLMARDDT
# α3β4 nicotinic acetylcholine receptor (mouse), sequence (Q8R493 21-495): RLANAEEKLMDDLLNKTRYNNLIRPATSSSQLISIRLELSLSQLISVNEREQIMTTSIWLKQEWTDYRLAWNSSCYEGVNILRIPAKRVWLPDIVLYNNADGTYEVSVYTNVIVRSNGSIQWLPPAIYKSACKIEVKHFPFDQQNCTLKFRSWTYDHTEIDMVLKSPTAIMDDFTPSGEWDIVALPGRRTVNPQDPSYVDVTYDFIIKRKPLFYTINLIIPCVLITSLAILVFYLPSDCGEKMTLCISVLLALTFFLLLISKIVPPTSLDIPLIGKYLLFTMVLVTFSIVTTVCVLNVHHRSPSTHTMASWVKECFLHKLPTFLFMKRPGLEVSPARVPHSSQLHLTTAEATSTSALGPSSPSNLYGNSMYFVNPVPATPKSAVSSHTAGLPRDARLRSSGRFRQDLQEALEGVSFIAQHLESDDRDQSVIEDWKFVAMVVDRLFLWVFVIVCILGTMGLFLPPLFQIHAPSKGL
substance,measurement,value
molleamine C [compound 3],IC50,1.43 µM
